From patent publication US10501479B2, “Benzenesulfonyl-asymmetric ureas and medical uses thereof” (HELSINN HEALTHCARE SA, priority 2016, dated 2019) come the findings set out here.

Holding throughout (type): cell-based
For experiment [1], the target named is T1, GHSR-1a (HEK293/GHSR1a cell line) (Homo sapiens, UniProt Q92847).
T1 construct: expressed in transfected cells; host or cells: HEK293/GHSR1a cell line
Description: Ghrelin agonist potency (EC50) with calcium FLIPR assay. The procedure:
Evaluation of Ghrelin Agonist (EC50) and Antagonist Potency (IC50) with Calcium FLIPR Assay:
The intracellular calcium assay was carried out in a 384-well format FLIPR™ (Molecular Device) HEK293/GHSR1a cell line. Cells were seeded 24 hr prior to the experiments at an optimal density per well. Preincubation with selected calcium dye lasted for 30-60 min at room temperature or 37° C. Test compounds, dissolved in DMSO, were added at the appropriate time and incubated for 15 min followed by the addition of ghrelin with FlexStation or FLIPR. Relative fluorescence was monitored by the FLIPR™ Molecular Device. EC50 and IC50 values were estimated from dose-response data using GraphPad Prism software. To check for GHSR-1a agonism, the compound was added at t=20 sec. and the calcium response was followed for 2 minutes. To check for GHSR-1a antagonism, the compound and Ghrelin (10 nM) were added to the cells at t=20 sec. and the calcium response was measured for 2 minutes. The potency of the antagonist was calculated by its ability to reduce the ghrelin response. Dose-response curves were made for relevant antagonists.

The target of experiment [2] is T1, GHSR-1a (HEK293/GHSR1a cell line). Description: Ghrelin antagonist potency (IC50) with calcium FLIPR assay, ghrelin 10 nM. An outline of the steps: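 Calcium flux was followed 2 min by FLIPR in dye-loaded HEK293/GHSR1a cells. For antagonist IC50, compound and ghrelin (10 nM) were co-added at t=20 sec and inhibition of the ghrelin signal fitted; for agonist EC50, compound alone was added at t=20 sec and dose-response fitted.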

For experiment [3], the target named is T2, recombinant human ghrelin receptor (HEK293/GRLN) (Homo sapiens, UniProt Q92847).
T2 construct: expressed in transfected cells
T2 sequence (Q92847 whole entry): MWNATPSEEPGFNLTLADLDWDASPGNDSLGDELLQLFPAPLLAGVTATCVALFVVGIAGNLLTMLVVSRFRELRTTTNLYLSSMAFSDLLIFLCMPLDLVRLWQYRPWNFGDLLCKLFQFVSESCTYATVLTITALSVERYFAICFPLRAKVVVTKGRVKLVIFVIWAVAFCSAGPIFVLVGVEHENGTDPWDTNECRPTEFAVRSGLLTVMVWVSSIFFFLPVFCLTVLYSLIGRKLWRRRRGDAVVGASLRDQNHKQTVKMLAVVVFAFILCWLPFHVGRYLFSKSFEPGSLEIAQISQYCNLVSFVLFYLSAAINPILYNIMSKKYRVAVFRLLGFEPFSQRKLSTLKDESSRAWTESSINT
Description: Ghrelin inverse agonist potency (EC50) with IP-1 (IP-One HTRF) assay. Particulars: IP-1 assay. An outline of the steps:
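IP-1 accumulation was measured by HTRF (IP1-d2/Tb-cryptate, 620/665 nm read after 1 hour at room temperature) following 1 hour of compound treatment at 37° C. Cells were HEK293 stably expressing human ghrelin receptor, plated a day earlier on Matrigel. Inverse agonist potency was reported as EC50.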
(In general: TR-FRET usually uses a lanthanide donor and a delayed reading to cut background.)

Where [4] appears, read: HEK293/GHSR1a, read-out: Activity EC50/EMax: EC50 (ghrelin agonist potency).
Setting [5] is: HEK293/GHSR1a, ghrelin 10 nM, read-out: Activity IC50 (ghrelin antagonist potency).
Where [6] appears, read: HEK293/GRLN, read-out: Activity EC50 (ghrelin inverse agonist potency).
[7] abbreviates: ghrelin agonist potency, read-out: Activity EC50/EMax.
The mark [8] stands for this setting: ghrelin antagonist potency, read-out: Activity IC50.
Setting [9] is: ghrelin inverse agonist potency, read-out: Activity EC50.

Where two headings read alike, the source gives them in different places.

T1 sequence (Q92847 whole entry): as above

What is called IC50 is the midpoint of a concentration-inhibition curve. On to `COc1cc2c(cc1CS(=O)(=O)c1ccc(NC(=O)NC(C)c3cccc(Cl)c3Cl)cc1)CCNC2` (stereo not drawn) [H1392, 1-(1-(2,3-dichlorophenyl)ethyl)-3-(4-(((7-methoxy-1,2,3,4-tetrahydroisoquinolin-6-yl)methyl)sulfonyl)phenyl)urea], for which the EC50 in experiment [1] (setting [4]) was above 30000 nM; in experiment [3] (setting [6]) it was 52.6 nM. For the same molecule, the IC50 in experiment [2] (setting [5]) turned out to be 98.8 nM.

As to `CC(NC(=O)Nc1ccc(S(=O)(=O)Cc2ccc3c(c2)C(F)(F)CNC3)cc1)c1cccc(Cl)c1Cl` (stereo not drawn) [H1547, 1-(1-(2,3-dichlorophenyl)ethyl)-3-(4-(((4,4-difluoro-1,2,3,4-tetrahydroisoquinolin-6-yl)methyl)sulfonyl)phenyl)urea], the EC50 in experiment [1] (setting [7]) was above 30000 nM; in experiment [3] (setting [9]), 35 nM. Besides, in experiment [2] (setting [8]), the half-maximal inhibitory concentration (IC50) amounted to 456 nM.

`CC(NC(=O)Nc1ccc(S(=O)(=O)Cc2ccc3c(c2)CNC3)cc1F)c1ccccc1` (stereo not drawn) [H1316, 1-(2-fluoro-4-((isoindolin-5-ylmethyl)sulfonyl)phenyl)-3-(1-phenylethyl)urea]: the EC50 in experiment [1] (setting [4]) is above 30000 nM; in experiment [3] (setting [6]), 11.6 nM. Also, the half-maximal inhibitory concentration (IC50) in experiment [2] (setting [5]) is 30.9 nM.

`COc1ccc(C(C)NC(=O)Nc2ccc(S(=O)(=O)Cc3ccc4c(c3)CNC4)cc2)cc1OC` (stereo not drawn) [H1444, 1-(1-(3,4-dimethoxyphenyl)ethyl)-3-(4-((isoindolin-5-ylmethyl)sulfonyl)phenyl)urea]: the EC50 in experiment [1] (setting [4]) was above 30000 nM; in experiment [3] (setting [6]) it was 185 nM. In addition, the IC50 in experiment [2] (setting [5]) amounted to 2860 nM.

Turning to `O=C(Nc1ccc(S(=O)(=O)Cc2ccc3c(c2)CNC3)cc1)N(O)Cc1ccccc1` [H1502, 1-benzyl-1-hydroxy-3-(4-((isoindolin-5-ylmethyl)sulfonyl)phenyl)urea], the EC50 was above 30000 nM in experiment [1] (setting [7]) and 35.1 nM in experiment [3] (setting [9]). Also, the IC50 in experiment [2] (setting [8]) was 164 nM.

For `COc1cc2c(cc1CS(=O)(=O)c1ccc(NC(=O)NC(C)c3cccc(Cl)c3Cl)cc1)CCN(C)C2` (stereo not drawn) [H1368, 1-(1-(2,3-dichlorophenyl)ethyl)-3-(4-(((7-methoxy-2-methyl-1,2,3,4-tetrahydroisoquinolin-6-yl)methyl)sulfonyl)phenyl)urea], the EC50 was above 30000 nM in experiment [1] (setting [4]) and 2.8 nM in experiment [3] (setting [6]). For the same molecule, the IC50 in experiment [2] (setting [5]) was 20.3 nM.

Take `C[C@@H](NC(=O)Nc1ccc(S(=O)(=O)Cc2ccc(C3CCCN3)cc2)cc1)c1ccccc1` (stereo partly drawn) [H1332, 1-((R)-1-phenylethyl)-3-(4-((4-(pyrrolidin-2-yl)benzyl)sulfonyl)phenyl)urea]: the EC50 is above 30000 nM in experiment [1] (setting [4]) and 42.1 nM in experiment [3] (setting [6]). The IC50 in experiment [2] (setting [5]) worked out at 73.2 nM.

Regarding `Cc1ccc(C(C)NC(=O)Nc2ccc(S(=O)(=O)Cc3ccc4c(c3)CNC4)cc2)cc1C(F)F` (stereo not drawn) [H1521, 1-(1-(3-(difluoromethyl)-4-methylphenyl)ethyl)-3-(4-((isoindolin-5-ylmethyl)sulfonyl)phenyl)urea], the EC50 in experiment [1] (setting [7]) is above 30000 nM; in experiment [3] (setting [9]), 17.8 nM. Moreover, in experiment [2] (setting [8]), the IC50 is 52.3 nM.

Regarding `COc1cc(S(=O)(=O)Cc2ccc3c(c2)CCN(C)C3)ccc1NC(=O)N(O)C(C)c1ccccc1` (stereo not drawn) [H1525, 1-hydroxy-3-(2-methoxy-4-(((2-methyl-1,2,3,4-tetrahydroisoquinolin-6-yl)methyl)sulfonyl)phenyl)-1-(1-phenylethyl)urea], the EC50 in experiment [1] (setting [7]) is above 30000 nM; in experiment [3] (setting [9]), 25.5 nM. Also, the 50% inhibitory concentration (IC50) in experiment [2] (setting [8]) is 37.4 nM.

For the molecule `CC(NC(=O)Nc1ccc(S(=O)(=O)Cc2cc3c(cc2F)CN(C)CC3)cc1)c1cccc(Cl)c1Cl` (stereo not drawn) [H1366, 1-(1-(2,3-dichlorophenyl)ethyl)-3-(4-(((7-fluoro-2-methyl-1,2,3,4-tetrahydroisoquinolin-6-yl)methyl)sulfonyl)phenyl)urea], the EC50 in experiment [1] (setting [4]) was above 30000 nM; in experiment [3] (setting [6]), 2.5 nM. Further, the IC50 in experiment [2] (setting [5]) is 21.5 nM.

For `COc1cc(S(=O)(=O)Cc2ccc(CO)cc2)ccc1NC(=O)NC(C)c1c(F)cccc1F` (stereo not drawn) [H1432, 1-(1-(2,6-difluorophenyl)ethyl)-3-(4-((4-(hydroxymethyl)benzyl)sulfonyl)-2-methoxyphenyl)urea], the results for the EC50 in experiment [1] (setting [4]) and in experiment [3] (setting [6]) were above 30000 nM and 367 nM, respectively. In addition, the IC50 in experiment [2] (setting [5]) came out at 5500 nM.

As to `NC(=O)C(NC(=O)Nc1ccc(S(=O)(=O)Cc2ccc3c(c2)CNC3)cc1)c1ccccc1` (stereo not drawn) [H1457, 2-(3-(4-((isoindolin-5-ylmethyl)sulfonyl)phenyl)ureido)-2-phenylacetamide], the EC50 is above 30000 nM in experiment [1] (setting [7]) and 123 nM in experiment [3] (setting [9]). For the same molecule, the IC50 in experiment [2] (setting [8]) was determined as 16600 nM.

As for `COc1cc(S(=O)(=O)Cc2ccc(CO)cc2)ccc1NC(=O)NC(C)c1ccccc1` (stereo not drawn) [H1433, 1-(4-((4-(hydroxymethyl)benzyl)sulfonyl)-2-methoxyphenyl)-3-(1-phenylethyl)urea], the EC50 was above 30000 nM in experiment [1] (setting [4]) and 473 nM in experiment [3] (setting [6]). Moreover, in experiment [2] (setting [5]), the IC50 is 3120 nM.

Take `CC(NC(=O)Nc1ccc(S(=O)(=O)Cc2ccc3c(c2)CNC3)cc1C(=O)O)c1cccc(Cl)c1Cl` (stereo not drawn) [H1549, 2-(3-(1-(2,3-dichlorophenyl)ethyl)ureido)-5-((isoindolin-5-ylmethyl)sulfonyl)benzoic acid]: the EC50 in experiment [1] (setting [7]) is above 30000 nM; in experiment [3] (setting [9]), 1.2 nM. The IC50 in experiment [2] (setting [8]) was 1.69 nM.

In the case of `CC(=O)N1C2CC=C(CS(=O)(=O)c3ccc(NC(=O)NC(C)c4cccc(Cl)c4Cl)cc3)C1CC2` (stereo not drawn) [H1513, 1-(4-(((8-acetyl-8-azabicyclo[3.2.1]oct-2-en-2-yl)methyl)sulfonyl)phenyl)-3-(1-(2,3-dichlorophenyl)ethyl)urea], the EC50 is above 30000 nM in experiment [1] (setting [7]) and 707 nM in experiment [3] (setting [9]). Moreover, the IC50 in experiment [2] (setting [8]) turned out to be 14600 nM.

For the molecule `CN1Cc2ccc(CS(=O)(=O)c3ccc(NC(=O)NC4COc5ccccc54)cc3)cc2C1` (stereo not drawn) [H1331, 1-(2,3-dihydrobenzofuran-3-yl)-3-(4-(((2-methylisoindolin-5-yl)methyl)sulfonyl)phenyl)urea], the EC50 is above 30000 nM in experiment [1] (setting [4]) and 130 nM in experiment [3] (setting [6]). Besides, in experiment [2] (setting [5]), the IC50 was determined as 213 nM.

Turning to `COc1cccc(OC)c1C(C)NC(=O)Nc1ccc(S(=O)(=O)Cc2ccc3c(c2)CN(C)C3)cc1` (stereo not drawn) [H1451, 1-(1-(2,6-dimethoxyphenyl)ethyl)-3-(4-(((2-methylisoindolin-5-yl)methyl)sulfonyl)phenyl)urea], the results for the EC50 in experiment [1] (setting [4]) and in experiment [3] (setting [6]) were above 30000 nM and 33.3 nM, respectively. In addition, the IC50 in experiment [2] (setting [5]) was determined as 68.5 nM.

Regarding `COc1ccc(C(C)NC(=O)Nc2ccc(S(=O)(=O)Cc3ccc4c(c3)CNC4)cc2)cc1Cl` (stereo not drawn) [H1475, 1-(1-(3-chloro-4-methoxyphenyl)ethyl)-3-(4-((isoindolin-5-ylmethyl)sulfonyl)phenyl)urea], the results for the EC50 in experiment [1] (setting [7]) and in experiment [3] (setting [9]) were above 30000 nM and 18.9 nM, respectively. Further, the IC50 in experiment [2] (setting [8]) is 32.2 nM.

Regarding `CCN(CC)C1CCC(CS(=O)(=O)c2ccc(NC(=O)NC(C)c3cccc(Cl)c3Cl)cc2)CC1` (stereo not drawn) [H1372, 1-(1-(2,3-dichlorophenyl)ethyl)-3-(4-(((4-(diethylamino)cyclohexyl)methyl)sulfonyl)phenyl)urea], the EC50 was above 30000 nM in experiment [1] (setting [4]) and 936 nM in experiment [3] (setting [6]). The IC50 in experiment [2] (setting [5]) is 18200 nM.

Take `CC(NC(=O)Nc1ccc(S(=O)(=O)Cc2ccc3c(c2)CNC3)cc1)c1ccncc1` (stereo not drawn) [H1274, 1-(4-((isoindolin-5-ylmethyl)sulfonyl)phenyl)-3-(1-(pyridin-4-yl)ethyl)urea]: the EC50 is above 30000 nM in experiment [1] (setting [4]) and 685 nM in experiment [3] (setting [6]). Also, the IC50 in experiment [2] (setting [5]) was 1580 nM.

As to `COc1ccc(CNC(=O)Nc2ccc(S(=O)(=O)Cc3ccc4c(c3)CN(C)C4)cc2)cc1Cl` [H1478, 1-(3-chloro-4-methoxybenzyl)-3-(4-(((2-methylisoindolin-5-yl)methyl)sulfonyl)phenyl)urea], the EC50 in experiment [1] (setting [7]) is above 30000 nM; in experiment [3] (setting [9]), 19.6 nM. The IC50 in experiment [2] (setting [8]) was 40.3 nM.

With `C[C@H](NC(=O)Nc1ccc(S(=O)(=O)Nc2ccc3[nH]cnc3c2)cc1)c1cccc(Cl)c1Cl` [H1111, (S)-N-(1H-benzo[d]imidazol-5-yl)-4-(3-(1-(2,3-dichlorophenyl)ethyl)ureido) benzenesulfonamide], in experiment [1] (ghrelin agonist potency), the “EC50/EMax: EC50 (Activity)” value was above 30000 nM. Moreover, in experiment [2] (ghrelin antagonist potency, read-out: IC50 (Activity)), the IC50 was determined as 2250 nM. In addition, the EC50 in experiment [3] (inverse agonist potency, read-out: EC50 (Activity)) came to 1230 nM.

As to `COc1cc(S(=O)(=O)Cc2ccc3c(c2)CC(C)NC3)ccc1NC(=O)N(O)C(C)c1ccccc1` (stereo not drawn) [H1524, 1-hydroxy-3-(2-methoxy-4-(((3-methyl-1,2,3,4-tetrahydroisoquinolin-6-yl)methyl)sulfonyl)phenyl)-1-(1-phenylethyl)urea], the results for the EC50 in experiment [1] (setting [7]) and in experiment [3] (setting [9]) were above 30000 nM and 12.6 nM, respectively. In experiment [2] (setting [8]), the IC50 came out at 9.77 nM.
